Several values for one entry are separate records, joined by “and”; a condition that tells them apart may be missing. Identical values can stand only once.
How the values were obtained:
DLCL-2 = assay: Viability assay of liquid tumor cell lines (MTS); type: cell-based; conditions: DLCL-2 (B-NHL), N = 4
Protocol: (§1) This method is to determine the viability of a liquid tumor cell line following treatment with a test compound. Tumor cells are maintained in suspension at log phase growth. On the day of use, cells are resuspended to a density of 0.05 to 0.1 million/ml and cells are incubated in 96 well plate with the test compounds for 96 hours. Viability of cells was measured by incubating cells with Promega's MTS reagent. The viability of the cell is proportional to the change in absorbance at 490 nm. By comparing the absorbance between control and compound-treated cells, the impact of the test compounds on the cell viability is determined as a percent of the control cell viability.
(§2) Harvest cells in complete RPMI from log-phase cultures at densities of approximately 0.3-0.7 million/ml. Count cells and adjust to 0.1 million/ml in phenol red free cRPMI (For fast growing cells with doubling time of equal or less than 24 hours, e.g. K562, use 0.05 million/ml instead to avoid over-growing).
(§3) Transfer triplicates of 100 μl of cells to the wells of 96-well clear plates for a total of 10000 cells/well. Note that each well already contains 10 μl of 10× concentrated test compound prepared as above.
(§4) Incubate cells for 72-96 hours at 37° C. in a tissue culture incubator containing 5% CO2.
(§5) 1. Thaw the Promega's MTS reagent and add 20 ul to each well with a repeat pipetor.
(§6) 4. Incubate at 370 C until the absorbance at 490 nm for the control cells is >1.5.
(§7) 5. Calculate the averaged compound-treated cell data as a percent of the averaged control cell data as follows: (Compound-treated value/control value)*100=% of control value Results: […]

DOHH-2 = assay: Viability assay of liquid tumor cell lines (MTS); type: cell-based; conditions: DOHH-2 (B-NHL), N = 4
Protocol: as §1, §2, §3, §4, §5, §6, §7

Granta-519 = assay: Viability assay of liquid tumor cell lines (MTS); type: cell-based; conditions: Granta-519 (MCL), N = 4
Protocol: as §1, §2, §3, §4, §5, §6, §7

HL-60 = assay: Viability assay of liquid tumor cell lines (MTS); type: cell-based; conditions: HL-60 (AML), N = 4
Protocol: as §1, §2, §3, §4, §5, §6, §7

JVM-2 = assay: Viability assay of liquid tumor cell lines (MTS); type: cell-based; conditions: JVM-2 (B-CLL), N = 4, listed as A003397769, 10 µM
Protocol: as §1, §2, §3, §4, §5, §6, §7

Jeko-1 = assay: Viability assay of liquid tumor cell lines (MTS); type: cell-based; conditions: Jeko-1 (MCL), N = 4
Protocol: as §1, §2, §3, §4, §5, §6, §7

Jurkat = assay: Viability assay of liquid tumor cell lines (MTS); type: cell-based; conditions: Jurkat (T-ALL), N = 4; for IC50: MTS assay
Protocol: as §1, §2, §3, §4, §5, §6, §7

Jurl-MK1 = assay: Viability assay of liquid tumor cell lines (MTS); type: cell-based; conditions: Jurl-MK1 (CML), N = 4
Protocol: as §1, §2, §3, §4, §5, §6, §7

K562 = assay: Viability assay of liquid tumor cell lines (MTS); type: cell-based; conditions: K562 (CML), N = 4
Protocol: as §1, §2, §3, §4, §5, §6, §7

KG-1 = assay: Viability assay of liquid tumor cell lines (MTS); type: cell-based; conditions: KG-1 (AML), N = 4
Protocol: as §1, §2, §3, §4, §5, §6, §7

L-363 = assay: Viability assay of liquid tumor cell lines (MTS); type: cell-based; conditions: L-363 (MM), N = 4
Protocol: as §1, §2, §3, §4, §5, §6, §7

ML-2 = assay: Viability assay of liquid tumor cell lines (MTS); type: cell-based; conditions: ML-2 (AML), N = 4
Protocol: as §1, §2, §3, §4, §5, §6, §7

Nalm-6 = assay: Viability assay of liquid tumor cell lines (MTS); type: cell-based; conditions: Nalm-6 (B-ALL), N = 4
Protocol: as §1, §2, §3, §4, §5, §6, §7

RPMI8226 = assay: Viability assay of liquid tumor cell lines (MTS); type: cell-based; conditions: RPMI8226 (MM), N = 4
Protocol: as §1, §2, §3, §4, §5, §6, §7

[1] = test system: hematological malignant cell lines; assay: Viability assay (MTS), panel of hematological malignant cell lines; type: cell-based
Protocol: as §1, §2, §3, §4
1. […]
4. Incubate at 370 C until the absorbance at 490 nm for the control cells is >1.5. […]

[2] = test system: Collagen-induced arthritis (CIA); assay: Rat collagen induced arthritis, combination dosing with Methotrexate; type: in vivo
Protocol: Immunization and Challenge: Female Lewis rats were immunized on day 0 and challenged on day 7 with cII from bovine nasal mixed with Freund's incomplete adjuvant at a final collagen concentration of 1.0 mg/ml. The animals were injected at the base of the tail with 400 μg of cII. Combination Dosing Regimen: Rats were dosed with the compound of Formula I (3.0 and 10 mg/kg, p.o., bi.d.) or Methotrexate (MTX, 0.1 and 0.2 mg/kg, p.o., q.d.) as monotherapy or in combinations consisting of each dose of the compound of Formula I with each dose of MTX starting on day 6 and continuing through day 21. Joint Pathology Ankle joint swelling was measured to the nearest 0.01 mm by using electronic digital calipers. Measurements were recorded 7 times throughout the study starting on day 6 and ending on day 21. Body weights were recorded on the same days. On day 21, hind paws were removed at the hairline just above the ankle and fixed in 10% neutral buffered formalin. MicroCT analysis: Ankle joints were examined using a cone-beam μCT scanner. A scout view scan was obtained first for selection of the examination volume of the specimens, followed by positioning, measurement and computational reconstruction. In ankle joints, the ratio of bone surface to bone volume, describing the complexity of bone surface in a certain volume, was analyzed. Statistical Analysis For joint swelling/inflammation, data were analyzed using Everstat v.5 software and a 2-way repeated measure ANOVA with Dunnett's post test. MicroCT data were analyzed by Everstat using a 1-way ANOVA and Newman-Keuls multiple comparison test.

Q: For CCc1c(-c2ccc(C(C)(C)O)cc2)[nH]c2nccnc12 [compound of Formula I, 2-[4-(7-Ethyl-5H-pyrrolo[2,3-b]pyrazin-6-yl)-phenyl]-propan-2-ol], which “% Inhibition at max. conc. (10 uM)” value (DLCL-2) is on record?
A: 0%

Q: What about the “% Inhibition at max. conc. (10 uM)” value (DOHH-2; 10 uM) of the same compound?
A: 75%

Q: And the IC50 (DOHH-2; Homo sapiens, MTS assay)?
A: 4.5 µM

Q: And the “% Inhibition at max. conc. (10 uM)” value (Granta-519; 10 uM)?
A: 67%

Q: What about the IC50 (Granta-519; Homo sapiens, MTS assay) of the same compound?
A: 3.4 µM

Q: What about the “% Inhibition at max. conc. (10 uM)” value (HL-60) of the same compound?
A: 35%

Q: And the “% Inhibition at max. conc. (10 uM)” value (JVM-2)?
A: 60% and 59%

Q: And the IC50 (Jeko-1; Homo sapiens, MTS assay)?
A: 3.1 µM

Q: What about the “% Inhibition at max. conc. (10 uM)” value (Jeko-1; 10 uM) of the same compound?
A: 97%

Q: What about the IC50 (Jurkat; Homo sapiens, Jurkat) of the same compound?
A: 6.8 µM

Q: What about the “% Inhibition at max. conc. (10 uM)” value (Jurkat; 10 uM) of the same compound?
A: 43%

Q: And the IC50 (Jurkat; listed as A003397769)?
A: > 10 µM

Q: What about the “% Inhibition at max. conc. (10 uM)” value (Jurl-MK1) of the same compound?
A: 28%

Q: What about the “% Inhibition at max. conc. (10 uM)” value (K562) of the same compound?
A: 21%

Q: And the IC50 (KG-1; Homo sapiens, MTS assay)?
A: 1.9 µM

Q: What about the “% Inhibition at max. conc. (10 uM)” value (KG-1; 10 uM) of the same compound?
A: 91%

Q: And the IC50 (L-363; Homo sapiens, MTS assay)?
A: 5.5 µM

Q: And the “% Inhibition at max. conc. (10 uM)” value (L-363; 10 uM)?
A: 61%

Q: What about the IC50 (ML-2; Homo sapiens, MTS assay) of the same compound?
A: > 10 µM

Q: What about the “% Inhibition at max. conc. (10 uM)” value (ML-2; 10 uM) of the same compound?
A: 28%

Q: What about the IC50 (Nalm-6; Homo sapiens, MTS assay) of the same compound?
A: 5.5 µM

Q: And the “% Inhibition at max. conc. (10 uM)” value (Nalm-6; 10 uM)?
A: 84%

Q: And the IC50 (RPMI8226; Homo sapiens, RPMI-8226, MTS assay)?
A: > 10 µM

Q: What about the “% Inhibition at max. conc. (10 uM)” value (RPMI8226; 10 uM) of the same compound?
A: 36%

Q: What about the “anti-proliferation activity in the two MCL cell lines” value ([1]; Jeko-1 and Granta-519) of the same compound?
A: consistently active

Q: What about the “hematological malignant cell lines against which the compound is inhibitory” value ([1]; MTS assay, panel of Table 4) of the same compound?
A: 6 out of 15

Q: And the “disease severity as measured by joint swelling/inflammation” value ([2]; 3.0 mg/kg monotherapy)?
A: failed to significantly impact on disease severity

Q: What about the “bone erosion, MicroCT” value ([2]; 3 mg/kg monotherapy, vs vehicle) of the same compound?
A: significant decrease was not observed

Q: And the ankle swelling/inflammation ([2]; 10 mg/kg monotherapy, vs vehicle, days 15 through 21)?
A: significantly reduced ankle swelling/inflammation

Q: What about the “bone erosion, MicroCT” value ([2]; 10 mg/kg po bid monotherapy, vs vehicle) of the same compound?
A: significant decrease in bone erosion

From patent US8658649B2, “Kinase inhibitor” (Sanofi, priority 2006, dated 2014)
